The values below come from paper PMC10528299, “Targeting FAK/PYK2 with SJP1602 for Anti-Tumor Activity in Triple-Negative Breast Cancer” (Current Issues in Molecular Biology, 2023).

Holding throughout (assay): Eurofins kinase profiling
What all share (type): biochemical

In one assay the target is T1, MELK(h) (Homo sapiens, UniProt Q14680).
T1 construct: purchased Eurofins KinaseProfiler
To be noted: read-out: residual kinase activity MELK(h). In short, it runs like this: (§1)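 At a fixed 1 µM, the compound was profiled against each kinase, whose activity was quantified through radiolabeled phosphate incorporation.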

Another assay concerns the target T2, ErbB2(h) (Homo sapiens, UniProt P04626).
T2 construct: purchased Eurofins KinaseProfiler
As to conditions: read-out: residual kinase activity ErbB2(h). An outline of the steps: as §1

The target in the next assay is T3, EGFR(T790M,L858R)(h) (Homo sapiens, UniProt P00533, L858R/T790M).
T3 construct: purchased Eurofins KinaseProfiler
As to conditions: read-out: residual kinase activity EGFR(T790M,L858R)(h). In short, it runs like this: as §1

For the next assay, the target named is T4, NIM1(h) (Homo sapiens, UniProt Q8IY84).
T4 construct: purchased Eurofins KinaseProfiler
To be noted: read-out: residual kinase activity NIM1(h). An outline of the steps:
as §1

In a further assay the target is T5, Bmx(h) (Homo sapiens, UniProt P51813).
T5 construct: purchased Eurofins KinaseProfiler
T5 sequence (P51813 1-675): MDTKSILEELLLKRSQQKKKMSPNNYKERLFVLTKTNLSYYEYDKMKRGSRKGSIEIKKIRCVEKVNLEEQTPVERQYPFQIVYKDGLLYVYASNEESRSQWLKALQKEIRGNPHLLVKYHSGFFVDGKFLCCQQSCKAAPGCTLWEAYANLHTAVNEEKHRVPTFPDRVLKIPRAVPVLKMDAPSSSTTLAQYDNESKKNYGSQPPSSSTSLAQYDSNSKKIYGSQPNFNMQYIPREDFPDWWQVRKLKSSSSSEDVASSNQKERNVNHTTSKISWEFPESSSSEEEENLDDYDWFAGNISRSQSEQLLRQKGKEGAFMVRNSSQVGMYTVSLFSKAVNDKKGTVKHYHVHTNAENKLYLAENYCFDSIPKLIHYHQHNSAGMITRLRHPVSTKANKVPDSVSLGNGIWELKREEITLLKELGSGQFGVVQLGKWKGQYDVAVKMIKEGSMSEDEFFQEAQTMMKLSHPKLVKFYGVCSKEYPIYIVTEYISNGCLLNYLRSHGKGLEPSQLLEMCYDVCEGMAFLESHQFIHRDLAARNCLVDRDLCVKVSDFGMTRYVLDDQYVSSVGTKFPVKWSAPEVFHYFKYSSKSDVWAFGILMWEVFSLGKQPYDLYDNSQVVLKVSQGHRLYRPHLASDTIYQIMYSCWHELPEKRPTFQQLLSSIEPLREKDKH
As to conditions: read-out: residual kinase activity Bmx(h). An outline of the steps: as §1

The next assay concerns the target T6, ROCK-I(h) (Homo sapiens, UniProt Q13464).
T6 construct: purchased Eurofins KinaseProfiler
As to conditions: read-out: residual kinase activity ROCK-I(h). In short, it runs like this:
as §1

For the next assay, the target named is T7, Axl(h) (Homo sapiens, UniProt P30530).
T7 construct: purchased Eurofins KinaseProfiler
T7 sequence (P30530 26-894): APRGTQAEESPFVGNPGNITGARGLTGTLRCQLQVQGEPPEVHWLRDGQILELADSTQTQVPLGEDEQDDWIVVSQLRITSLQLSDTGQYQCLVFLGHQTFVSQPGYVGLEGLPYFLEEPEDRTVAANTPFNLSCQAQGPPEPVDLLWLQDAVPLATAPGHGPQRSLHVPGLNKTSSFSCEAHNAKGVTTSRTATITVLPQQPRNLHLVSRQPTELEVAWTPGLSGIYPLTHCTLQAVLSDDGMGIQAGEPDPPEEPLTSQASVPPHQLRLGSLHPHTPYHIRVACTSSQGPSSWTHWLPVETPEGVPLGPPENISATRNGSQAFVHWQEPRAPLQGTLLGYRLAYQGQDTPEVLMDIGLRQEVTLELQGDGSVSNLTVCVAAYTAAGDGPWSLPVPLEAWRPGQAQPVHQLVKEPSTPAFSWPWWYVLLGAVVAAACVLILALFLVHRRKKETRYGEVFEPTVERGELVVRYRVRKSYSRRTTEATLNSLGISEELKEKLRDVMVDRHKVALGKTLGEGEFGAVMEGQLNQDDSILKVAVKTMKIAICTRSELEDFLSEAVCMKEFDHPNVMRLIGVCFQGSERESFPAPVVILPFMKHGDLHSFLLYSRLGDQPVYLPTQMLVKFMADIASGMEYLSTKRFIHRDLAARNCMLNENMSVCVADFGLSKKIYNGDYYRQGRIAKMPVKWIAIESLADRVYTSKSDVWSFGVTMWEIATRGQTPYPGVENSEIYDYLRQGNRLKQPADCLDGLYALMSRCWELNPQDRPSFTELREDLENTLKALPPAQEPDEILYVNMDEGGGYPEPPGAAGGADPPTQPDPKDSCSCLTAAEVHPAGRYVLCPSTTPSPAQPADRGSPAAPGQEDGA
As to conditions: read-out: residual kinase activity Axl(h). In short, it runs like this: as §1

In another assay the target is T8, EGFR(L861Q)(h) (Homo sapiens, UniProt P00533, L861Q).
T8 construct: purchased Eurofins KinaseProfiler
As to conditions: read-out: residual kinase activity EGFR(L861Q)(h). An outline of the steps: as §1

In a further assay the target is T9, IR(h) (Homo sapiens, UniProt P06213).
T9 construct: purchased Eurofins KinaseProfiler
As to conditions: read-out: residual kinase activity IR(h). An outline of the steps:
as §1

A further assay addresses T10, Pim-1(h) (Homo sapiens, UniProt P11309).
T10 construct: purchased Eurofins KinaseProfiler
As to conditions: read-out: residual kinase activity Pim-1(h). An outline of the steps: as §1

For the next assay, the target named is T11, Hck(h) (Homo sapiens, UniProt P08631).
T11 construct: purchased Eurofins KinaseProfiler
To be noted: read-out: residual kinase activity Hck(h). An outline of the steps: as §1

T4 sequence (Q8IY84 whole entry): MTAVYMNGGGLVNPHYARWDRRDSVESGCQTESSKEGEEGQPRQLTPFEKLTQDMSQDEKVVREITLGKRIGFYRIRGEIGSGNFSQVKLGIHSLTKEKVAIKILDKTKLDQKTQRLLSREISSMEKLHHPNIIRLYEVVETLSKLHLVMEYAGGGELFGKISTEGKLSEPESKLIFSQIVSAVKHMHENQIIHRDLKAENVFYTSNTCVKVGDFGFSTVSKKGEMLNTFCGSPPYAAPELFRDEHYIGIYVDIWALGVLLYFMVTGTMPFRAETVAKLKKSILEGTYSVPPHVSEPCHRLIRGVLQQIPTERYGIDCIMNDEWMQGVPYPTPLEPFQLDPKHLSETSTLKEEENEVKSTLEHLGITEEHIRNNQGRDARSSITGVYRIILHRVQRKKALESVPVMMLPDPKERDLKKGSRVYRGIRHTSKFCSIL
T8 sequence (P00533 25-1210 L861Q): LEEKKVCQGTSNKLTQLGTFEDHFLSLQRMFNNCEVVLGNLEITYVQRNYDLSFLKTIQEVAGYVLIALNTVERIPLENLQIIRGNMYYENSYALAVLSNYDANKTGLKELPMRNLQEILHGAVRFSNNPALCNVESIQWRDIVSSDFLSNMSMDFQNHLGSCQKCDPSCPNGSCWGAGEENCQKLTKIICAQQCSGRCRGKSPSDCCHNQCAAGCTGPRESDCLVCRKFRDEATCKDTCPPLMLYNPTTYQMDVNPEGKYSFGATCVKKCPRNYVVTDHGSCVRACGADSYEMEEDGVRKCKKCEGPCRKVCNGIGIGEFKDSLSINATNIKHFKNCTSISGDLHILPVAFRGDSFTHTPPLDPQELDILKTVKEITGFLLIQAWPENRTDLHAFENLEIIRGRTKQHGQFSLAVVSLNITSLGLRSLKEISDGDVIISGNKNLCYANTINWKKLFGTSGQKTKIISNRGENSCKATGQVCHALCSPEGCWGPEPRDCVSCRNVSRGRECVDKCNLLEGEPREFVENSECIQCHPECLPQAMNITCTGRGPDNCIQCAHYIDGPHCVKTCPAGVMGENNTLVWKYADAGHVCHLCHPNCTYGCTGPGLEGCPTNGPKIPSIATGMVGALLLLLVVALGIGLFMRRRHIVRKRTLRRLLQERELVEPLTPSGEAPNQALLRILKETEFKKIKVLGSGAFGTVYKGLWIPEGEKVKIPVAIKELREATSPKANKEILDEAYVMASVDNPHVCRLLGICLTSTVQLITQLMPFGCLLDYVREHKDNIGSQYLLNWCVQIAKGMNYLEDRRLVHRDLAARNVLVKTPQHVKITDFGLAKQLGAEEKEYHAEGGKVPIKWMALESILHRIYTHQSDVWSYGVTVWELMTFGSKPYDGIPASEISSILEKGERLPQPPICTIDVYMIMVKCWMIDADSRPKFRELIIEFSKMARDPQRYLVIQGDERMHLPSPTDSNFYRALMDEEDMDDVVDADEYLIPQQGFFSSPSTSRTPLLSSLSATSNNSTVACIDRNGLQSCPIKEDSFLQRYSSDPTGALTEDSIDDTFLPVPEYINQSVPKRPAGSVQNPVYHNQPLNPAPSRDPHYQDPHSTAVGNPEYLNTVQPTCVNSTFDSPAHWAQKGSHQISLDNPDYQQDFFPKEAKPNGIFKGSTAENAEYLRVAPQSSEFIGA
T2 sequence (P04626 23-1255): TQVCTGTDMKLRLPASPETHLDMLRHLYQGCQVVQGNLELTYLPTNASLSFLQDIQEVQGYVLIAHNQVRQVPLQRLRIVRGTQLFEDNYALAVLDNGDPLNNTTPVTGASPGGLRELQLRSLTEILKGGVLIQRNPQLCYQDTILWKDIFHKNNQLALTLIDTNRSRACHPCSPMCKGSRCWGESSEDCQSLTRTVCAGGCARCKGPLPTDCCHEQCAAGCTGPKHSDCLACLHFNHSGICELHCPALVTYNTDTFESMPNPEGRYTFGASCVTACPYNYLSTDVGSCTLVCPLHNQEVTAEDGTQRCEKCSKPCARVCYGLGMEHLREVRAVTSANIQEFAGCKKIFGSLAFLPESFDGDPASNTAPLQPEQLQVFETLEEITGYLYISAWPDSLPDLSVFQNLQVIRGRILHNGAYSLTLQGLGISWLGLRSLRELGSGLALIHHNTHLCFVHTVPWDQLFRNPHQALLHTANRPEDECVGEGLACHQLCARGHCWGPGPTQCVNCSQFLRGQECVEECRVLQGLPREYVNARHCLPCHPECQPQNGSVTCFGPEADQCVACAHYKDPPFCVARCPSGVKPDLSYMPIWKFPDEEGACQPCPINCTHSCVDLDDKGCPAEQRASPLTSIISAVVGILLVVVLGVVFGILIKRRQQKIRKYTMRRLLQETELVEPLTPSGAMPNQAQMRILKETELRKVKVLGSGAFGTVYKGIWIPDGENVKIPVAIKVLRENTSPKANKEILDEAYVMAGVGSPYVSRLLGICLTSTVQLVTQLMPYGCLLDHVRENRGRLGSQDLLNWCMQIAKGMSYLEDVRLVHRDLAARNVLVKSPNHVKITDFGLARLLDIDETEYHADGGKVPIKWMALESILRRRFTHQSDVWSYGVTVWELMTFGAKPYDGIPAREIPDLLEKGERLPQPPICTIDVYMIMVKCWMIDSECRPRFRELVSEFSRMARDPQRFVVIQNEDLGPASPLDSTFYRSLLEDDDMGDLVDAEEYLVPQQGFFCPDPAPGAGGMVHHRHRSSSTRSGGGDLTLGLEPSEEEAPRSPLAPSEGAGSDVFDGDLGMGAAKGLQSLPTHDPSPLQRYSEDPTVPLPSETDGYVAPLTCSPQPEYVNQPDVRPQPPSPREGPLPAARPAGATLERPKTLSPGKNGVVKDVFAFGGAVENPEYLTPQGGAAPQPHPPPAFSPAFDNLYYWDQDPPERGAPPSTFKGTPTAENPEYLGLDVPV
T3 sequence (P00533 25-1210 T790M/L858R): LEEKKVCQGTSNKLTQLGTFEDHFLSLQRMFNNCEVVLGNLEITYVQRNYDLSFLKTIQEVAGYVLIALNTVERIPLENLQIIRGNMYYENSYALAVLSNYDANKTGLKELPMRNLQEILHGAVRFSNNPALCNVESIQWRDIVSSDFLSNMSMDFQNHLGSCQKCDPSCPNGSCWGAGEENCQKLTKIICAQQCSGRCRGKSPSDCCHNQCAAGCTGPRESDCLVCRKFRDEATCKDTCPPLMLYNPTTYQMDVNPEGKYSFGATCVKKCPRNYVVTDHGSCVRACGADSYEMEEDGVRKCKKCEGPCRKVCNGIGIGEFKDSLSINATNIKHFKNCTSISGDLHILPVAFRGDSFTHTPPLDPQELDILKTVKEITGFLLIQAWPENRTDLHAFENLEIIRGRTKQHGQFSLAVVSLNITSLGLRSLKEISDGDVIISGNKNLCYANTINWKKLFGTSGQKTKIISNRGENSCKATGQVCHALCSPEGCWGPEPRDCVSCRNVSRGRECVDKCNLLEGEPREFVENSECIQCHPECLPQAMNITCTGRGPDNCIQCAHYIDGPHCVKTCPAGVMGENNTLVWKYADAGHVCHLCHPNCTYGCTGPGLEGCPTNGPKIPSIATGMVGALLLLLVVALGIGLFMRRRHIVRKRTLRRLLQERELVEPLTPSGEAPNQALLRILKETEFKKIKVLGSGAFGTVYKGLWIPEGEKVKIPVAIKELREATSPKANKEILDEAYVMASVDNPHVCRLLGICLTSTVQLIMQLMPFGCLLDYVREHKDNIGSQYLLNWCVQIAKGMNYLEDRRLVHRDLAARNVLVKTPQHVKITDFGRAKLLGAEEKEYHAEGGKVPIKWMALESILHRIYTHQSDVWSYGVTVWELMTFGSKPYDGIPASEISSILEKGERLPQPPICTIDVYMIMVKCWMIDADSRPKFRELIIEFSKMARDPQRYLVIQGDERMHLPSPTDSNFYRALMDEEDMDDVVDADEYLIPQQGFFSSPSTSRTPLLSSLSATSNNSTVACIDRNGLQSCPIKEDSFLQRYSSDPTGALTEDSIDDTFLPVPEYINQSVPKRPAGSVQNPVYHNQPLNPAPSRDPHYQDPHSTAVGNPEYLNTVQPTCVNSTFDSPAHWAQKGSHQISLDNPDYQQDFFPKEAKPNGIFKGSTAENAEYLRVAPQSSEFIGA
T10 sequence (P11309 whole entry): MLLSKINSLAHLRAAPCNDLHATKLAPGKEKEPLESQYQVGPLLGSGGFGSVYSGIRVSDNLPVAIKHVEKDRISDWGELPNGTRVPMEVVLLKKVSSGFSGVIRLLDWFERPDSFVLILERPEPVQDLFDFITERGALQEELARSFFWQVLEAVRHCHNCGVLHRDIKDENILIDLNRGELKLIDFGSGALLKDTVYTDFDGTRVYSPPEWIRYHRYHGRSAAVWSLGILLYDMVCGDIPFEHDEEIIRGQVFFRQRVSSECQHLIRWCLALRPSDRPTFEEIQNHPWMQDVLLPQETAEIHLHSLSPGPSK
T11 sequence (P08631 whole entry): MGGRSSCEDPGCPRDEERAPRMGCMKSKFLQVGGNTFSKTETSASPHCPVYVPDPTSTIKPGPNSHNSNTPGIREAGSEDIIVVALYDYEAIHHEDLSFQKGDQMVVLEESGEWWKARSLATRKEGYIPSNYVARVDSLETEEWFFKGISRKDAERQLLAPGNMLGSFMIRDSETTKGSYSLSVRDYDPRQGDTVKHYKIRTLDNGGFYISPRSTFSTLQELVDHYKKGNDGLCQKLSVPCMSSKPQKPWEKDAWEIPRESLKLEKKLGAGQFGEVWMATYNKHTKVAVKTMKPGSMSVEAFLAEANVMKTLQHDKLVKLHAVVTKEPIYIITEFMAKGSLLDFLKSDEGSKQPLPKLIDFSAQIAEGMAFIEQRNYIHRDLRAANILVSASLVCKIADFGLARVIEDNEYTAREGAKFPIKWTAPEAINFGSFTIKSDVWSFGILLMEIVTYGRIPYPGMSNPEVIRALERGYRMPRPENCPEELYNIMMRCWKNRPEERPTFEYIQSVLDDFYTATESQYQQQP

Consider `CONC(=O)c1ccccc1Nc1cc(Nc2cc(C)nn2C(C)C)ncc1Cl` [GSK2256098], for which the remaining activity at 1 µM turned out to be 91% at MELK(h); 94% on ErbB2(h); 88% on EGFR(T790M,L858R)(h); 85% on NIM1(h); 105% at Bmx(h); 107% on ROCK-I(h). The remaining activity at 1 µM stood at 84% at Axl(h); 69% on EGFR(L861Q)(h); 105% on IR(h); 87% on Pim-1(h); 100% at Hck(h).
As to `CNC(=O)c1cccc(C)c1Nc1nc(Nc2ccc(N3CCN(C4C5CC6CC4CC(O)(C6)C5)CC3)cc2OC)ncc1C(F)(F)F` (stereo not drawn) [SJP1602, 2-((2-((4-(4-((2s,5r)-5-hydroxyadamantan-2-yl)piperazin-1-yl)-2-methoxyphenyl)amino)-5-(trifluoromethyl)pyrimidin-4-yl)amino)-N,3-dimethylbenzamide], the remaining activity at 1 µM came out at 74% on MELK(h); 113% on ErbB2(h); 88% at EGFR(T790M,L858R)(h); 95% at NIM1(h); 84% on Bmx(h); 101% on ROCK-I(h). Further, the remaining activity at 1 µM is 105% on Axl(h); 120% at EGFR(L861Q)(h); 103% on IR(h); 87% at Pim-1(h); 105% on Hck(h).
For the molecule `CNC(=O)c1ccc(Nc2ncc(C(F)(F)F)c(NCc3nccnc3N(C)S(C)(=O)=O)n2)cc1` [VS-6063, Defactinib], the remaining activity at 1 µM at MELK(h) stood at 9%; at ErbB2(h), 122%; at EGFR(T790M,L858R)(h), 65%; on NIM1(h), 78%; on Bmx(h), 47%; at ROCK-I(h), 103%. Moreover, the remaining activity at 1 µM on Axl(h) was found to be 57%; on EGFR(L861Q)(h), 128%; at IR(h), 62%; on Pim-1(h), 86%; at Hck(h) it was 99%.
